Measured values published in PubChem BioAssay AID330 (DTP/NCI, 2004).
“And” between values parts separate entries of the source, which are not always exact repeats. Equal entries are not always repeated. Inconclusive results and toxic doses are left out.

Test system: P388 leukemia ip, CD2F1 mice, survival T/C
Assay: NCI In Vivo Anticancer Drug Screen. Data for tumor model P388 Leukemia (intraperitoneal) in CD2F1 (CDF1) mice
Details: endpoint: median survival time, higher = longer survival
Method in brief: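 Mice carrying the transplanted tumor received test compound or vehicle. Survival was recorded in each group, and the value is the treated-group measurement divided by that of the vehicle-treated control group.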

[1] = dose: 25.0 mg/kg/injection, schedule: Q04DX002 (ip), vehicle: saline with Tween-80
[2] = dose: 50.0 mg/kg/injection, schedule: Q04DX002 (ip), vehicle: saline with Tween-80
[3] = dose: 100.0 mg/kg/injection, schedule: Q04DX002 (ip), vehicle: Klucel (hydroxypropylcellulose) (HPC)
[4] = dose: 200.0 mg/kg/injection, schedule: Q04DX002 (ip), vehicle: Klucel (hydroxypropylcellulose) (HPC)
[5] = dose: 400.0 mg/kg/injection, schedule: Q04DX002 (ip), vehicle: Klucel (hydroxypropylcellulose) (HPC)
[6] = dose: 12.5 mg/kg/injection, schedule: Q01DX009 (ip), vehicle: saline with Tween-80
[7] = dose: 25.0 mg/kg/injection, schedule: Q01DX009 (ip), vehicle: saline with Tween-80
[8] = dose: 50.0 mg/kg/injection, schedule: Q01DX009 (ip), vehicle: saline with Tween-80
[9] = dose: 50.0 mg/kg/injection, schedule: Q01DX009 (ip), vehicle: saline
[10] = dose: 100.0 mg/kg/injection, schedule: Q01DX009 (ip), vehicle: saline with Tween-80
[11] = dose: 200.0 mg/kg/injection, schedule: Q01DX009 (ip), vehicle: saline with Tween-80
[12] = dose: 25.0 mg/kg/injection, schedule: Q01DX005 (ip), vehicle: saline with Tween-80
[13] = dose: 50.0 mg/kg/injection, schedule: Q01DX005 (ip), vehicle: saline with Tween-80
[14] = dose: 200.0 mg/kg/injection, schedule: Q01DX005 (ip), vehicle: saline with Tween-80
[15] = dose: 50.0 mg/kg/injection, schedule: Q01DX009 (ip), vehicle: Klucel (hydroxypropylcellulose) (HPC)
[16] = dose: 100.0 mg/kg/injection, schedule: Q01DX009 (ip), vehicle: Klucel (hydroxypropylcellulose) (HPC)
[17] = dose: 200.0 mg/kg/injection, schedule: Q01DX009 (ip), vehicle: Klucel (hydroxypropylcellulose) (HPC)
[18] = dose: 100.0 mg/kg/injection, schedule: Q01DX009 (ip), vehicle: saline
[19] = dose: 200.0 mg/kg/injection, schedule: Q01DX009 (ip), vehicle: saline

SMILES: CCCCCCCCC(O)CCC (stereo not given)
- T/C (dose: 100.0 mg/kg/injection, schedule: Q04DX003 (ip), vehicle: saline): 100 % of control
- T/C (dose: 200.0 mg/kg/injection, schedule: Q04DX003 (ip), vehicle: saline): 100 % of control
- T/C (dose: 400.0 mg/kg/injection, schedule: Q04DX003 (ip), vehicle: saline): 100 % of control

SMILES: O=C1C(C(=Nc2cccc(Br)c2)c2ccccc2)=C(O)c2ccccc21
- T/C [1]: 96 % of control
- T/C [2]: 100 % of control
- T/C (dose: 100.0 mg/kg/injection, schedule: Q04DX002 (ip), vehicle: saline with Tween-80): 99 % of control

SMILES: CCOC1CC2CCCN2O1 (stereo not given)
- T/C (dose: 75.0 mg/kg/injection, schedule: Q01DX009 (ip), vehicle: saline): 103 % of control
- T/C (dose: 150.0 mg/kg/injection, schedule: Q01DX009 (ip), vehicle: saline): 100 % of control
- T/C (dose: 300.0 mg/kg/injection, schedule: Q01DX009 (ip), vehicle: saline): 94 % of control

SMILES: C/C(=N\NC(N)=O)C1(c2ccccc2)CCN(C)CC1
- T/C [3]: 100 % of control
- T/C [4]: 97 % of control
- T/C [5]: 96 % of control

SMILES: c1ccc(-c2ccccc2NC2=NCCO2)cc1
- T/C [6]: 104 % of control
- T/C [7]: 104 % of control
- T/C [8]: 95 % of control

SMILES: c1ccc2c(c1)Oc1cccc3cccc-2c13
- T/C (dose: 50.0 mg/kg/injection, schedule: Q01DX005 (ip), vehicle: Klucel (hydroxypropylcellulose) (HPC)): 97 % of control
- T/C (dose: 100.0 mg/kg/injection, schedule: Q01DX005 (ip), vehicle: Klucel (hydroxypropylcellulose) (HPC)): 101 % of control
- T/C (dose: 200.0 mg/kg/injection, schedule: Q01DX005 (ip), vehicle: Klucel (hydroxypropylcellulose) (HPC)): 101 % of control

SMILES: O=C(O)CS(=O)(=O)CC(=O)O
- T/C [9]: 95 % of control

SMILES: COc1ccc(C(=O)CC2CCCC(CC(=O)c3ccc(OC)cc3)N2C)cc1 (stereo not given)
- T/C [8]: 100 % of control
- T/C [10]: 101 % of control

SMILES: CC1OC(=O)C(=O)/C1=C1/CC(C)(C)N(c2ccccc2)N1 (stereo not given)
- T/C [7]: 104 % of control and 91 % of control
- T/C [8]: 107 % of control and 108 % of control and 90 % of control
- T/C [10]: 90 % of control and 96 % of control
- T/C [11]: 88 % of control and 92 % of control

SMILES: N#CC1=CC2C3C(=O)N(c4ccccc4)C(=O)C3C1N(Cc1ccccc1)C2c1ccccc1 (stereo not given)
- T/C (dose: 12.5 mg/kg/injection, schedule: Q01DX005 (ip), vehicle: saline with Tween-80): 95 % of control
- T/C (dose: 12.5 mg/kg/injection, schedule: Q04DX002 (ip), vehicle: saline with Tween-80): 102 % of control
- T/C [12]: 91 % of control
- T/C [1]: 94 % of control
- T/C [13]: 89 % of control
- T/C [2]: 94 % of control
- T/C [14]: 87 % of control
- T/C (dose: 200.0 mg/kg/injection, schedule: Q04DX002 (ip), vehicle: saline with Tween-80): 87 % of control
- T/C (dose: 400.0 mg/kg/injection, schedule: Q04DX002 (ip), vehicle: saline with Tween-80): 89 % of control

SMILES: Cc1ncc(CNC(=O)NCCCl)c(N)n1
- T/C [15]: 102 % of control
- T/C [16]: 103 % of control
- T/C [17]: 108 % of control

SMILES: CC1([P+](C)(C)C)C2C=CC1CC2 (stereo not given)
- T/C (dose: 25.0 mg/kg/injection, schedule: Q01DX001 (ip), vehicle: saline): 100 % of control
- T/C (dose: 50.0 mg/kg/injection, schedule: Q01DX001 (ip), vehicle: saline): 103 % of control
- T/C (dose: 100.0 mg/kg/injection, schedule: Q01DX001 (ip), vehicle: saline with Tween-80): 105 % of control
- T/C (dose: 100.0 mg/kg/injection, schedule: Q01DX001 (ip), vehicle: saline): 100 % of control

SMILES: CC(=O)C1(C)CC=CCC1C(=O)O (stereo not given)
- T/C [18]: 100 % of control
- T/C [19]: 100 % of control
- T/C (dose: 400.0 mg/kg/injection, schedule: Q01DX009 (ip), vehicle: saline): 100 % of control

SMILES: CCCCCCCCCCCCCCCCN1CCS(=O)(=O)CC1
- T/C [15]: 108 % of control
- T/C [16]: 100 % of control and 98 % of control
- T/C [17]: 101 % of control and 88 % of control

SMILES: COC1CCC(OC2CC(C3(C)CCC4(CC(O)C(C)C(C(C)/C=C(\C)C(=O)C(C)CC(C)C(=O)O)O4)O3)OC3(OC(C4OC(O)(CO)C(C)CC4C)CC3C)C2C)OC1C (stereo not given)
- T/C (dose: 12.5 micrograms/kg/injection, schedule: Q01DX009 (ip), vehicle: suspension in saline): 106 % of control
- T/C (dose: 25.0 micrograms/kg/injection, schedule: Q01DX009 (ip), vehicle: suspension in saline): 108 % of control
- T/C (dose: 37.5 micrograms/kg/injection, schedule: Q01DX009 (ip), vehicle: suspension in saline): 114 % of control
- T/C (dose: 50.0 micrograms/kg/injection, schedule: Q01DX009 (ip), vehicle: suspension in saline): 108 % of control
- T/C (dose: 75.0 micrograms/kg/injection, schedule: Q01DX009 (ip), vehicle: suspension in saline): 109 % of control
- T/C (dose: 100.0 micrograms/kg/injection, schedule: Q01DX009 (ip), vehicle: suspension in saline): 100 % of control
- T/C (dose: 150.0 micrograms/kg/injection, schedule: Q01DX009 (ip), vehicle: suspension in saline): 100 % of control
- T/C (dose: 200.0 micrograms/kg/injection, schedule: Q01DX009 (ip), vehicle: suspension in saline): 107 % of control
- T/C (dose: 400.0 micrograms/kg/injection, schedule: Q01DX009 (ip), vehicle: suspension in saline): 104 % of control

SMILES: Nc1ccc(C(=O)Nc2ccc(C(=O)Nc3ccc(/C=C/c4ccc(NC(=O)c5ccc(N)cc5)cc4S(=O)(=O)O)c(S(=O)(=O)O)c3)cc2)cc1
- T/C [9]: 99 % of control
- T/C [18]: 113 % of control
- T/C [19]: 100 % of control

SMILES: CC(O)CNC1=C(Cl)C(=O)c2ccccc2C1=O (stereo not given)
- T/C (dose: 12.5 mg/kg/injection, schedule: Q01DX009 (ip), vehicle: distilled water + Tween-80): 100 % of control
- T/C (dose: 25.0 mg/kg/injection, schedule: Q01DX009 (ip), vehicle: distilled water + Tween-80): 103 % of control
- T/C (dose: 50.0 mg/kg/injection, schedule: Q01DX009 (ip), vehicle: distilled water + Tween-80): 100 % of control
- T/C (dose: 100.0 mg/kg/injection, schedule: Q01DX009 (ip), vehicle: distilled water + Tween-80): 98 % of control
- T/C (dose: 200.0 mg/kg/injection, schedule: Q01DX009 (ip), vehicle: distilled water + Tween-80): 92 % of control

SMILES: CC(=O)Nc1c(Cl)nc2cc(N(C)C)ccc2c1Cl
- T/C (dose: 60.0 mg/kg/injection, schedule: Q01DX005 (ip), vehicle: Klucel + Tween-80): 97 % of control
- T/C (dose: 120.0 mg/kg/injection, schedule: Q01DX005 (ip), vehicle: Klucel + Tween-80): 96 % of control
- T/C (dose: 240.0 mg/kg/injection, schedule: Q01DX005 (ip), vehicle: Klucel + Tween-80): 97 % of control

SMILES: CC(=O)Nc1nc(N)nc2c1CC(N(Cc1ccc(Cl)cc1)C(C)=O)CC2 (stereo not given)
- T/C [8]: 108 % of control
- T/C [10]: 119 % of control
- T/C [11]: 154 % of control

SMILES: CC(CN=Cc1ccccc1O)N=Cc1ccccc1O.[Zn] (stereo not given)
- T/C (dose: 6.25 mg/kg/injection, schedule: Q01DX009 (ip), vehicle: saline with Tween-80): 103 % of control
- T/C [6]: 111 % of control
- T/C [7]: 93 % of control and 97 % of control
- T/C [8]: 99 % of control

SMILES: Clc1ccc(S[As](Sc2ccc(Cl)cc2)Sc2ccc(Cl)cc2)cc1
- T/C [3]: 121 % of control
- T/C [4]: 114 % of control
- T/C [5]: 113 % of control

SMILES: C=C1C(=O)OC2C=C(CCC(C)=O)C(C)C(OC(C)=O)CC12 (stereo not given)
- T/C (dose: 25.0 mg/kg/injection, schedule: Q01DX009 (ip), vehicle: Klucel (hydroxypropylcellulose) (HPC)): 100 % of control
- T/C [15]: 102 % of control
- T/C [16]: 94 % of control
- T/C [17]: 94 % of control

SMILES: NS(=O)(=O)c1ncnc2nc[nH]c12
- T/C (dose: 10.0 mg/kg/injection, schedule: Q01DX009 (ip), vehicle: saline with Tween-80): 112 % of control
- T/C (dose: 15.0 mg/kg/injection, schedule: Q01DX009 (ip), vehicle: saline with Tween-80): 112 % of control
- T/C (dose: 30.0 mg/kg/injection, schedule: Q01DX009 (ip), vehicle: saline with Tween-80): 90 % of control
- T/C (dose: 60.0 mg/kg/injection, schedule: Q01DX009 (ip), vehicle: saline with Tween-80): 104 % of control

SMILES: Cc1c(COC(=O)NC(C)C)c(COC(=O)NC(C)C)c2n1CCS2(=O)=O
- T/C [12]: 92 % of control
- T/C [13]: 100 % of control
- T/C (dose: 100.0 mg/kg/injection, schedule: Q01DX005 (ip), vehicle: saline with Tween-80): 92 % of control
- T/C [14]: 86 % of control and 91 % of control
- T/C (dose: 400.0 mg/kg/injection, schedule: Q01DX005 (ip), vehicle: saline with Tween-80): 91 % of control
